Tests used:
Assay in all cases: KINOMEscan competition binding
Settings in all cases: compound 10.0 µM
HIPK4 (human) = HIPK4 (human) (UniProt Q8NE63)
MAP2K7 (human) = MAP2K7 (human) (UniProt O14733)
DYRK2 (human) = DYRK2 (human) (UniProt Q92630)
LRRK2 (human) = LRRK2 (human) (UniProt Q5S007)
KIT (human) = KIT (human) (UniProt P10721)
NIM1 (human) = NIM1 (human) (UniProt Q8IY84)
NEK4 (human) = NEK4 (human) (UniProt P51957)
BRAF (human) = BRAF (human) (UniProt P15056)
SIK3 (human) = SIK3 (human) (UniProt Q9Y2K2)
MAP3K6 (human) = MAP3K6 (human) (UniProt O95382)
PIP4K2C (human) = PIP4K2C (human) (UniProt Q8TBX8)
MATK (human) = MATK (human) (UniProt P42679)
PIK3CG (human) = PIK3CG (human) (UniProt P48736)
PKN3 (M.tuberculosis) = PKN3 (M.tuberculosis) (UniProt Q6P5Z2)
TBK1 (human) = TBK1 (human) (UniProt Q9UHD2)
MYLK3 (human) = MYLK3 (human) (UniProt Q32MK0)
CDK4 CCND3 (human) = CDK4 CCND3 (human) (UniProt P11802+P30281)
MET (human) = MET (human) (UniProt P08581)
CDK13 (human) = CDK13 (human) (UniProt Q14004)
DYRK1A (human) = DYRK1A (human) (UniProt Q13627)
PI4KB (human) = PI4KB (human) (UniProt Q9UBF8)
ICK (human) = ICK (human) (UniProt Q9UPZ9)
CDK4 CCND1 (human) = CDK4 CCND1 (human) (UniProt P11802+P24385)
NEK3 (human) = NEK3 (human) (UniProt P51956)
[1] = test system: ABL1 (human), P00519 [E255K]
ROCK1 (human) = ROCK1 (human) (UniProt Q13464)
MTOR (human) = MTOR (human) (UniProt P42345)
CDKL1 (human) = CDKL1 (human) (UniProt Q00532)
ERN1 (human) = ERN1 (human) (UniProt O75460)
PRKCI (human) = PRKCI (human) (UniProt P41743)
BTK (human) = BTK (human) (UniProt Q06187)
EPHB6 (human) = EPHB6 (human) (UniProt O15197)
[2] = test system: PIK3CA (human), P42336 [E545A]
[3] = test system: EGFR (human), P00533 [746-750 del]
DDR1 (human) = DDR1 (human) (UniProt Q08345)
[4] = test system: EGFR (human), P00533 [G719S]
TRPM6 (human) = TRPM6 (human) (UniProt Q9BX84)
[5] = test system: FLT3 (human), P36888 [K663Q]
MAP3K2 (human) = MAP3K2 (human) (UniProt Q9Y2U5)
[6] = test system: PIK3CA (human), P42336 [C420R]

LRRK2 (human), sequence (Q5S007 whole entry, looked up): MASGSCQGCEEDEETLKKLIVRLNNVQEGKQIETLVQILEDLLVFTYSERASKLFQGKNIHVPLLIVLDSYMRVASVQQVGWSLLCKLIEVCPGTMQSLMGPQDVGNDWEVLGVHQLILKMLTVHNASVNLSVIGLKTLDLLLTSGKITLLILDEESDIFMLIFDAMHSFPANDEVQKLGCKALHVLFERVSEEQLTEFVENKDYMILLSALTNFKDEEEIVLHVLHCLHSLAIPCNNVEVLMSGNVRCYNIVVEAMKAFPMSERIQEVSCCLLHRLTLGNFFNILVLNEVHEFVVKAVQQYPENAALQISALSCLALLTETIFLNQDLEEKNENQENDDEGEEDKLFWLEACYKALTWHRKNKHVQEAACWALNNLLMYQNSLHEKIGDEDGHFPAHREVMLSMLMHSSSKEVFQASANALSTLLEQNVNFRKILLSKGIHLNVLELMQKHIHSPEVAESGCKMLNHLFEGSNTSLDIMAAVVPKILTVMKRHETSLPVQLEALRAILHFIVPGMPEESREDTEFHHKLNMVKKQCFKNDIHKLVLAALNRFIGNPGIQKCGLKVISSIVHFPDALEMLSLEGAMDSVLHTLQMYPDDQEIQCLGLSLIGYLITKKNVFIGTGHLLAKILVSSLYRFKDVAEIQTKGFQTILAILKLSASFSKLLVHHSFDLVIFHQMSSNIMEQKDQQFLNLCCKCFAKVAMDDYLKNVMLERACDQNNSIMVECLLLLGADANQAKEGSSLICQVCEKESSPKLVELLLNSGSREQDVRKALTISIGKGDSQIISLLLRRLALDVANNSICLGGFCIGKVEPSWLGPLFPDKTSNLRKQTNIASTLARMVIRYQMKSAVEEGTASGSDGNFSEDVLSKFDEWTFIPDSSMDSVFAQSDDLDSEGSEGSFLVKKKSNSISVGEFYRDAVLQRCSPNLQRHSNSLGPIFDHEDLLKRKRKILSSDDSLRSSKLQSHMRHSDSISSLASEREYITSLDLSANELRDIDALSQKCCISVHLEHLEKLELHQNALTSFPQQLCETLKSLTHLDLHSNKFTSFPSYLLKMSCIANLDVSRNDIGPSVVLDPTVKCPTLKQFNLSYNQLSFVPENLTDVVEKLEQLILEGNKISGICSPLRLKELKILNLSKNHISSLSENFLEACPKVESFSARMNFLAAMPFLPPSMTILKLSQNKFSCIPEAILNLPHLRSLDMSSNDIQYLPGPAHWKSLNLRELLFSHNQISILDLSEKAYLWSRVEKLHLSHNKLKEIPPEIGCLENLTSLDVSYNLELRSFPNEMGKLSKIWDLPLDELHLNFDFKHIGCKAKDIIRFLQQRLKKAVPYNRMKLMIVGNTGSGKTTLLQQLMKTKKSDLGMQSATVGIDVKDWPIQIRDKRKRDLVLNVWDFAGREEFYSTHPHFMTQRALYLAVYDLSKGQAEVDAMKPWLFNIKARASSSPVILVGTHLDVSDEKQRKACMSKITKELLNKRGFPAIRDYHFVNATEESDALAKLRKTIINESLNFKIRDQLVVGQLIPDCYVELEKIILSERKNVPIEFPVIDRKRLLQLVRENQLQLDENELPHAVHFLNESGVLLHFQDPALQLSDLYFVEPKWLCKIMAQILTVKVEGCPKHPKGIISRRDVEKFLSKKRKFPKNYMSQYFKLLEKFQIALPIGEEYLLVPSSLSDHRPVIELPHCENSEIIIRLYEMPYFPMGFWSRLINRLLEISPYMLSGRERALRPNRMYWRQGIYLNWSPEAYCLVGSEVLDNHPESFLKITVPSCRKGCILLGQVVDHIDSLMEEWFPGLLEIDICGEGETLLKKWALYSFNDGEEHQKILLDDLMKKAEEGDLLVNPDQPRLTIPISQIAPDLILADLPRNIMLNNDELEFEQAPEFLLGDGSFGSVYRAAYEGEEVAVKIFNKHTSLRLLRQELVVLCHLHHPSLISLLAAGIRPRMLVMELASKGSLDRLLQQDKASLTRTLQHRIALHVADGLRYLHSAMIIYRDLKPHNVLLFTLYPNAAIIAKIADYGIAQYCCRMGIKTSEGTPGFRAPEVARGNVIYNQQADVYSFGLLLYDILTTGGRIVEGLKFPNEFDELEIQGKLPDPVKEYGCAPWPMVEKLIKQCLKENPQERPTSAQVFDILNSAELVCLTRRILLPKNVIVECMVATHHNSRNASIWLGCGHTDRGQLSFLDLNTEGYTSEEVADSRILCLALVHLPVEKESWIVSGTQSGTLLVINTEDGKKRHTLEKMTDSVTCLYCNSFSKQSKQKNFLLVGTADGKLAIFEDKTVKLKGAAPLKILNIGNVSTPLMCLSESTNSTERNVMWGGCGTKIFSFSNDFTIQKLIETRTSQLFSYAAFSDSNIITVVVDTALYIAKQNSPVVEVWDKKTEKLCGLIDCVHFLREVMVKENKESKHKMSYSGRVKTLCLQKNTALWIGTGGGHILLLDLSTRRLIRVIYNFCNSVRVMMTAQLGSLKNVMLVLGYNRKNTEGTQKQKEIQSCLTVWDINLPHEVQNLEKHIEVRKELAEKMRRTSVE
TRPM6 (human), sequence (Q9BX84 whole entry, looked up): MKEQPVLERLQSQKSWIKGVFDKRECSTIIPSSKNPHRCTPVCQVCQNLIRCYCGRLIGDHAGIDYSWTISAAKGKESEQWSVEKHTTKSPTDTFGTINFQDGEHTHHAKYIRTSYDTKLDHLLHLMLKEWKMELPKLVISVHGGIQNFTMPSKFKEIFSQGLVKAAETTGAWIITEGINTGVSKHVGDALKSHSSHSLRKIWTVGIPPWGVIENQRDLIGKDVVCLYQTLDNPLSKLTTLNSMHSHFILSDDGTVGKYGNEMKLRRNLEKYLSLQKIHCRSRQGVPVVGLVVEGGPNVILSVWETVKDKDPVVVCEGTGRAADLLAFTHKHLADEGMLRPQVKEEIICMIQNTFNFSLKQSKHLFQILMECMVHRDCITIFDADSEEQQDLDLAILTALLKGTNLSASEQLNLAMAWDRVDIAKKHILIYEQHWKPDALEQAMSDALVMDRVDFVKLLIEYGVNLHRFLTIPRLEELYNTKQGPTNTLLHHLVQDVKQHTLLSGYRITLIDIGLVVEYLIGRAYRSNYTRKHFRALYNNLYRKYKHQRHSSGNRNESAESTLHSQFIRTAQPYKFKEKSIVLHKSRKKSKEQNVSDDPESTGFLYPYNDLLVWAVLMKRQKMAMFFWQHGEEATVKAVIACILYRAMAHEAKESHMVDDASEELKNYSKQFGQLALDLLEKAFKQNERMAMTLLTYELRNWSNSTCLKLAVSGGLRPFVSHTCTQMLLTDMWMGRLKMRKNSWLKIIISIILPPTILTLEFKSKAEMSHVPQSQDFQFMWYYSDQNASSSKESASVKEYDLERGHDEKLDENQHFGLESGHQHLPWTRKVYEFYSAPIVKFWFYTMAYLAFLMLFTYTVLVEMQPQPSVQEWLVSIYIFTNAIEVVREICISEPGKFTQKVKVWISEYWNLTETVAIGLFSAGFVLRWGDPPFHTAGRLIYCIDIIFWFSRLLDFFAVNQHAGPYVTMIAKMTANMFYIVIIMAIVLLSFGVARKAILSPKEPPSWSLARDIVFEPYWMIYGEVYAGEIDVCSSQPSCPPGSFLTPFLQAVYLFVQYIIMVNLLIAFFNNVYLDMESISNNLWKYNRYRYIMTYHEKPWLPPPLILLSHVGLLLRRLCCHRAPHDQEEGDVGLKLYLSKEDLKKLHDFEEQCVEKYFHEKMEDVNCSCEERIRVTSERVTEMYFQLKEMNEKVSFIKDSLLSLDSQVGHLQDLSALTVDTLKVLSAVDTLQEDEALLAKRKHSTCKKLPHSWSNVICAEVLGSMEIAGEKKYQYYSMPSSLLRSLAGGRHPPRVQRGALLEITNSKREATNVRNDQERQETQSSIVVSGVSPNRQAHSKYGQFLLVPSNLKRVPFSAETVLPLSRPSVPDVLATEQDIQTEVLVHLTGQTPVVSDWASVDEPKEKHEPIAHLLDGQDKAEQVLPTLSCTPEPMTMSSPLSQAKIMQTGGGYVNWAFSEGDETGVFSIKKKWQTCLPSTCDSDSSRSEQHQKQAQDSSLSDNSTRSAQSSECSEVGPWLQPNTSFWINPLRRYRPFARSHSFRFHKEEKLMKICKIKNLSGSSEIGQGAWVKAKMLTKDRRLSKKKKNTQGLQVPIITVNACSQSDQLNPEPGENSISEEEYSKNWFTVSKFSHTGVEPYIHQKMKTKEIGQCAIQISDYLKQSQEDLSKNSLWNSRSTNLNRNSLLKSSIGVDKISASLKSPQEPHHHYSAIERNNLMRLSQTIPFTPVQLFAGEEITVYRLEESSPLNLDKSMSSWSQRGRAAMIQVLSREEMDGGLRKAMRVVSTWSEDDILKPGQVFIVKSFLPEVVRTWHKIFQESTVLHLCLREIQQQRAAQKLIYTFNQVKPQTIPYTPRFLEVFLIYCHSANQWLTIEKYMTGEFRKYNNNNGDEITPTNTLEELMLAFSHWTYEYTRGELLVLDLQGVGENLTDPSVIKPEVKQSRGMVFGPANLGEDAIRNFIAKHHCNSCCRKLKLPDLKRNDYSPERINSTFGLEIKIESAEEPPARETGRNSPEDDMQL
PRKCI (human), sequence (P41743 whole entry, looked up): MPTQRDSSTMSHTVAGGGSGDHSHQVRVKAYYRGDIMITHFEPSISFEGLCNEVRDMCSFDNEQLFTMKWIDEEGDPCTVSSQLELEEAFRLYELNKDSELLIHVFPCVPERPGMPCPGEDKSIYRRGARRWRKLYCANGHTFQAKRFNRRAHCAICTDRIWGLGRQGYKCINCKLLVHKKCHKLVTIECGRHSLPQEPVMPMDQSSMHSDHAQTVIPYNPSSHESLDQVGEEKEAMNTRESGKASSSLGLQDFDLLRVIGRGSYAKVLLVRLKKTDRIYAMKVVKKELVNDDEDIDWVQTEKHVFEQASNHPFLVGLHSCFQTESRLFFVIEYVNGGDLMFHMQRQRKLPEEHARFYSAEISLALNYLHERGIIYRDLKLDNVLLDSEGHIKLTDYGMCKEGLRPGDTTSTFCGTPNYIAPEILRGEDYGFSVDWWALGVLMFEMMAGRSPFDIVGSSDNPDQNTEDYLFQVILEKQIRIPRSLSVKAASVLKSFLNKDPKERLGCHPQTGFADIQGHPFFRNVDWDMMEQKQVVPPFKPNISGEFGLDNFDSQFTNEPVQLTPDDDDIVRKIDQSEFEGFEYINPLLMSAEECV

SMILES	kinase still bound, per cent of control (DYRK2 (human))	kinase still bound, per cent of control (LRRK2 (human))	kinase still bound, per cent of control (NIM1 (human))	kinase still bound, per cent of control (NEK4 (human))	kinase still bound, per cent of control (BRAF (human))	kinase still bound, per cent of control (SIK3 (human))	kinase still bound, per cent of control (MAP3K6 (human))	kinase still bound, per cent of control (PIP4K2C (human))	kinase still bound, per cent of control (MATK (human))	kinase still bound, per cent of control (PKN3 (M.tuberculosis))	kinase still bound, per cent of control (TBK1 (human))	kinase still bound, per cent of control (CDK4 CCND3 (human))	kinase still bound, per cent of control (MET (human))	kinase still bound, per cent of control (CDK13 (human))	kinase still bound, per cent of control (DYRK1A (human))	kinase still bound, per cent of control (PI4KB (human))	kinase still bound, per cent of control (ICK (human))	kinase still bound, per cent of control (CDK4 CCND1 (human))	kinase still bound, per cent of control (ROCK1 (human))	kinase still bound, per cent of control (CDKL1 (human))	also measured
CCOc1cc2ncc(C#N)c(Nc3ccc(OCc4ccccn4)c(Cl)c3)c2cc1NC(=O)/C=C/CN(C)C	64%	99%	90%	100%	95%	73%	87%	100%	71%	100%	100%	78%	84%	100%	99%	100%	100%	71%	100%	100%	kinase still bound, per cent of control (HIPK4 (human)): 42%; kinase still bound, per cent of control (MAP2K7 (human)): 49%; kinase still bound, per cent of control (KIT (human)): 80%; kinase still bound, per cent of control (PIK3CG (human)): 91%; kinase still bound, per cent of control (MYLK3 (human)): 86%; kinase still bound, per cent of control (NEK3 (human)): 41%; kinase still bound, per cent of control [1]: 100%; kinase still bound, per cent of control (MTOR (human)): 100%; kinase still bound, per cent of control (ERN1 (human)): 80%; kinase still bound, per cent of control (PRKCI (human)): 90%; kinase still bound, per cent of control (BTK (human)): 4.4%; kinase still bound, per cent of control (EPHB6 (human)): 83%; kinase still bound, per cent of control [2]: 100%
C[C@@H](Oc1cc(-n2cnc3ccc(CN4CCN(C)CC4)cc32)sc1C(N)=O)c1ccccc1C(F)(F)F	54%	60%	30%	69%	79%	69%	75%	62%	52%	27%	84%	70%	76%	26%	100%	100%	85%	91%	7.9%	75%	kinase still bound, per cent of control (HIPK4 (human)): 36%; kinase still bound, per cent of control (MAP2K7 (human)): 80%; kinase still bound, per cent of control (KIT (human)): 47%; kinase still bound, per cent of control [3]: 100%; kinase still bound, per cent of control (DDR1 (human)): 100%; kinase still bound, per cent of control (PIK3CG (human)): 6.4%; kinase still bound, per cent of control (MYLK3 (human)): 100%; kinase still bound, per cent of control [4]: 100%; kinase still bound, per cent of control (TRPM6 (human)): 100%; kinase still bound, per cent of control [5]: 14%; kinase still bound, per cent of control (NEK3 (human)): 100%; kinase still bound, per cent of control (MAP3K2 (human)): 100%; kinase still bound, per cent of control [1]: 55%; kinase still bound, per cent of control (MTOR (human)): 55%; kinase still bound, per cent of control (ERN1 (human)): 34%; kinase still bound, per cent of control (BTK (human)): 100%; kinase still bound, per cent of control (EPHB6 (human)): 59%; kinase still bound, per cent of control [2]: 40%; kinase still bound, per cent of control [6]: 55%
CCC(=O)N1CCN(c2ccc(-n3c(=O)ccc4cnc5ccc(-c6cnc7ccccc7c6)cc5c43)cc2C(F)(F)F)CC1	86%	81%	84%	86%	59%	89%	100%	58%	97%	64%	93%	87%	84%	80%	71%	96%	100%	100%	53%	100%	kinase still bound, per cent of control (HIPK4 (human)): 4.6%; kinase still bound, per cent of control (MAP2K7 (human)): 100%; kinase still bound, per cent of control (DDR1 (human)): 100%; kinase still bound, per cent of control (MYLK3 (human)): 94%; kinase still bound, per cent of control (TRPM6 (human)): 100%; kinase still bound, per cent of control [5]: 23%; kinase still bound, per cent of control (NEK3 (human)): 100%; kinase still bound, per cent of control (MAP3K2 (human)): 62%; kinase still bound, per cent of control (ERN1 (human)): 100%; kinase still bound, per cent of control (PRKCI (human)): 85%; kinase still bound, per cent of control (EPHB6 (human)): 80%; kinase still bound, per cent of control [2]: 1%; kinase still bound, per cent of control [6]: 0.7%
CCCS(=O)(=O)Nc1ccc(F)c(C(=O)c2c[nH]c3ncc(-c4ccc(Cl)cc4)cc23)c1F	100%	59%	100%	95%	0%	100%	100%	100%	100%	78%	100%	82%	53%	100%	100%	0.7%	73%	52%	85%	100%	kinase still bound, per cent of control (KIT (human)): 0.15%; kinase still bound, per cent of control (PIK3CG (human)): 19%; kinase still bound, per cent of control [4]: 50%; kinase still bound, per cent of control (TRPM6 (human)): 100%; kinase still bound, per cent of control (MAP3K2 (human)): 100%; kinase still bound, per cent of control (MTOR (human)): 100%; kinase still bound, per cent of control (ERN1 (human)): 82%; kinase still bound, per cent of control (PRKCI (human)): 100%; kinase still bound, per cent of control (BTK (human)): 93%; kinase still bound, per cent of control (EPHB6 (human)): 5.8%; kinase still bound, per cent of control [2]: 95%; kinase still bound, per cent of control [6]: 100%

From the kinase profiling compilation of Christmann-Franck et al. (2016)
